# Values of other authors in patent US20060004050A1, “Compositions and methods for the prevention or treatment of pain and other nervous system disorders” (priority 2004, published 2006).
# Tests used:
# [1] = in vivo
# [2] = rat
# beta-adrenergic = settings: L-form versus D-enantiomer
# [3] = in vivo; remark: listed apart in the source
# [4] = test system: spinal cord and descending neural pathways; settings: rats
# [5] = test system: spinal nerve root action potentials; settings: cats
# [6] = test system: calcium current of snail neurons
smiles,measurement,setting,value
"O=C1CCC(N2C(=O)c3ccccc3C2=O)C(=O)N1 (single isomer, unassigned) [L-enantiomer of thalidomide, thalidomide]",effect when prescribed for morning sickness during pregnancy,[1],potent teratogen
"Cc1ccc(C(=O)C(C)CN2CCCCC2)cc1 (single isomer, unassigned; (-)) [(−)-tolperisone]",pharmacodynamic property of the isomer,[2],vasodilatory activity
"Cc1ccc(C(=O)C(C)CN2CCCCC2)cc1 (single isomer, unassigned; (+)) [(+)-tolperisone]",pharmacodynamic property of the isomer,[2],more muscle-relaxant properties
CC(C)NCC(O)COc1cccc2ccccc12 (centres unmarked) [propranolol],potency relative to the D-enantiomer,beta-adrenergic,100 times
"O=C1CCC(N2C(=O)c3ccccc3C2=O)C(=O)N1 (single isomer, unassigned) [D-enantiomer of thalidomide, thalidomide]",effect when prescribed for morning sickness during pregnancy,[1],safe and effective sedative
"Cc1ccc(C(=O)C(C)CN2CCCCC2)cc1 (racemic) [Tolperisone, 2,4′-dimethyl-3-piperidino-propiophenone]",most serious adverse effect,[3],anaphylaxis
same,other frequently reported adverse effects,[3],"muscle weakness, muscle pain, headache, dizziness, and gastric complaints"
same,effect on segmental (limb) reflexes,[4],depress segmental (limb) reflexes
same,membrane effect,tissue membrane,tissue membrane stabilizing properties
same,effect on ventral nerve root reflexes and dorsal nerve root reflex,[5],dose-dependently inhibit both ventral nerve root reflexes and the dorsal nerve root reflex
same,effect on calcium current,[6],inhibit calcium current dose-dependently
